The values below come from patent US4416891A, “Ester of 6-[(hexahydro-1H-azepin-1-yl)methyleneamino]penicillanic acid, and its use as antibacterial agent” (priority 1981, dated 1983).

Each structure is given as a SMILES string. Counter-ions that a name gives are not always drawn. Like-named read-outs stand apart in the source and are kept apart here.

Broadly, the LD50 is the dose at which mortality reaches 50%. Read a high LD50 as lower toxicity.

Series [1] can be described thus: Stability in an artificial gastric juice (bioautography). In kind it is in vitro ADME. Particulars: pH about 1.2, 37° C. As to the method:
Stability in an artificial gastric juice
(5-methyl-2-oxo-1,3-dioxolen-4-yl)methyl 6-[(hexahydro-1H-azepin-1-yl)methleneamino]penicillanate hydrochloride monohydrate [compound (I).HCl.H2 O]
(§1) (b) Experimental procedure
A solution of 2 mg of compound (I).HCl.H2 O in 0.2 ml of dimethyl sulfoxide was added to 3.8 ml of the artificial gastric juice described in The Pharmacopoeia of Japan, 10th edition (having a pH of about 1.2 and prepared by adding 24.0 ml of 10% HCl to 2.0 g of sodium chloride and adding water to adjust the total amount to 1000 ml). The solution was maintained at 37° C., and bioautographed as shown below after the lapse of 10 minutes, 30 minutes, and 50 minutes, respectively.
(i) The test solution was spotted on a cellulose plate [Cellulose F (Art 5718 supplied by Merck & Co.)] for thin-layer chromatography, and developed with the upper layer of a mixture of n-butanol, ethanol and water in a ratio of 4:1:5. The plate was dried in the air, and a 10% aqueous solution of mouse serum was sprayed onto the plate. […]
(iv) After the cultivation, the position (Rf value) of an inhibitory zone on the plate against E. coli NIHJ was determined. From this Rf value and Rf values of compound (I).HCl.H2 O and Mecillinam (X) separately determined under the same conditions as in (i) to (iii) above, the compound in the test solution was identified. […]

Series [2] can be described thus: Stability in an artificial intestinal juice (bioautography). It counts as in vitro ADME. Particulars: pH about 6.8, 37° C. The protocol: Stability in an artificial intestinal juice
as §1
A test solution was prepared in the same way as in Test Example 1, (b), (1) except that the artificial intestinal juice described in The Pharmacopoeia of Japan, 10th edition (having a pH of about 6.8 and prepared by adding water to 250 ml of a 0.2 M aqueous solution of potassium dihydrogen phosphate and 118 ml of a 0.2 N aqueous solution of sodium hydroxide to form a solution having a total volume of 1000 ml) was used instead of the artificial gastric juice.
Performed in the same way as in Test Example 1, (b), (2).

A short description of series [3]: Stability in mouse serum (bioautography). Particulars: 40% mouse serum, 37° C., pH 7.4 phosphate buffer. It counts as in vitro ADME. As to the method: as §1
4 ml of mouse serum was added to 5.6 ml of 0.1 M phosphate buffer (pH 7.4), and then a portion (0.4 ml) of a solution of 20 mg of compound (I).HCl.H2 O in 1 ml of dimethyl sulfoxide was added. The solution was kept at 37° C. for 10 minutes to form a test solution.
The test solution obtained in (1) above was subjected to the same operation as in Example 1, (b), (2).

Another series deals with Escherichia coli NIHJ. Put plainly: Antibacterial activity in oral administration to mice (inhibitory zone of serum samples). In kind it is in vivo. To be noted: male ddY mice, dose corresponding to 50 mg/kg of Mecillinam, average of n=4, read-out: Diameter of the inhibitory zone. As to the method: Antibacterial activity in oral administration to mice
Compound (I).HCl.H2 O and Pivmecillinam.HCl.
as §1
Male ddY mice (6 weeks old, body weight 28±2 g) were used. They were caused to fast for 16 hours before the administration of the test compounds.
An aqueous solution (5 mg/ml) of each of the test compounds was prepared, and orally administered to mice (five per group) in a dose corresponding to 50 mg/kg of Mecillinam.
Blood samples were taken individually from five mice in each group at 30, 60 and 90 minutes after the administration of each compound. The blood samples were immediately centrifuged individually at 3,000 rpm for 15 minutes, and serum samples obtained (each in an amount of 0.2 ml) were combined to give 1 ml of serum for assaying.
(4) Measurement of antibacterial activity
0.2 ml of a suspension of Escherichia coli NIHJ as test organism was added to 5 ml of nutrient agar kept at about 48° C. to give an agar plate. The assaying serum prepared in (3) above was infiltrated into a paper disc (a thick type with a diameter of 8 mm, supplied by Toyo Filter Paper Co., Ltd.), and the paper disc was placed on the agar plate (n=4). It was maintained at 37° C. for 18 hours, and the diameter of the resulting inhibitory zone was measured with respect to each of the serum samples.
The diameter of the inhibitory zone (an average of n=4) measured with respect to each of the serum samples was as shown in Table 1.

Series [4] can be described thus: Toxicity test: acute toxicity (LD50) in oral administration. Particulars: mouse, in vivo, male ddY-strain mice, five per group. The text has this: The acute toxicity (LD50) of compound (I).HCl.H2 O and Pivmecillinam.HCl in oral administration was examined by using male ddY-strain mice (body weight 22 to 25 g; five per group).
Series [5] has as its system Gram-negative bacteria, especially Escherichia coli and Klebsiella pneumoniae. To be noted: compared with Gram-positive bacteria; cited from earlier work.
The conditions of series [6]: cited from earlier work.
For series [7] the following is noted: oral, man, 400 mg; cited from earlier work.
Where [8] appears, read: 0.5 h, blood letting time 30 min.
The mark [9] stands for this setting: in Mus musculus, blood letting time 90 min.

For `Cc1oc(=O)oc1COC(=O)[C@@H]1N2C(=O)[C@@H](N=CN3CCCCCC3)[C@H]2SC1(C)C` [Compound (I).HCl.H2 O, (5-methyl-2-oxo-1,3-dioxolen-4-yl)methyl 6-[(hexahydro-1H-azepin-1-yl)methleneamino]penicillanate hydrochloride monohydrate], the “period of stability in the artificial gastric juice” value in series [1] is on record as “more than 50 minutes”. In series [2], the “stability in the artificial intestinal juice” value is recorded as “stable in the artificial intestinal juice”. Moreover, in series [3], the “transformation to Mecillinam (X) in mouse serum” value was “transformed to Mecillinam (X) in 40% mouse serum within ten minutes at 37 °C”. For the same compound, the zone of inhibition at 50 mg/kg in the series on Escherichia coli NIHJ (setting [8]) turned out to be 23.3 mm; in the series with Escherichia coli NIHJ (1 h, blood letting time 60 min) it was 20 mm; in the series with Escherichia coli NIHJ (setting [9]), 17.2 mm. The compound also yielded an LD50 in series [4] of 5210 mg/kg.

As for `CC1(C)S[C@@H]2[C@H](N=CN3CCCCCC3)C(=O)N2[C@H]1C(=O)O` [Mecillinam (X), 6-[(hexahydro-1H-azepin-1yl)methyleneamino]penicillanic acid], the antibacterial spectrum entry in series [5] is “stronger activity against Gram-negative bacteria, especially Escherichia coli and Klebsiella pneumoniae, than against Gram-positive bacteria”. In addition, the “absorbability or bioavailability in oral administration” value in series [6] is reported as “low”.

Consider `CC(C)(C)C(=O)OCOC(=O)[C@@H]1N2C(=O)[C@@H](N=CN3CCCCCC3)[C@H]2SC1(C)C` [Pivmecillinam (X')], for which the “urinary excretion after the 6 hour period” value in series [7] is on record as 45%.

As to `CC(C)(C)C(=O)OCOC(=O)[C@@H]1N2C(=O)[C@@H](N=CN3CCCCCC3)[C@H]2SC1(C)C` [Pivmecillinam.HCl], the zone of inhibition at 50 mg/kg in the series with Escherichia coli NIHJ (setting [8]) is 23.2 mm; in the series with Escherichia coli NIHJ (1 h, blood letting time 60 min) it was 20.8 mm; in the series with Escherichia coli NIHJ (setting [9]), 18 mm. Further, the LD50 in series [4] stood at 3840 mg/kg.
